Reference: patent publication EP4706657A1, “COMBINATION THERAPY OF PEXIDARTINIB AND NINTEDANIB FOR PREVENTION OR TREATMENT OF PULMONARY FIBROSIS” (Korea Institute of Radiological & Medical Sciences, priority 2023, dated 2024)

Assays:
[1] = system: pulmonary fibrosis induced by bleomycin; experiment: Inhibitory effect on pulmonary fibrosis induced by bleomycin in mice (Micro-CT, H&E and Masson's Trichrome staining, survival); assay type: in vivo; settings: bleomycin sulfate 1.5 U/kg, male C57BL/6 mice; each drug 60 mg/kg orally once daily for two weeks starting 14 days after bleomycin; Micro-CT 4 weeks after bleomycin; compared to untreated group
Experimental: Each drug was administered starting 14 days after the administration of bleomycin. The control drugs, nintedanib and pexidartinib (IM-1), were both administered at a dose of 60 mg/kg, and the co-administration group was orally administered nintedanib (60 mg/kg) with IM-1 (60 mg/kg) once daily for two weeks (a total of 13 administrations). Additionally, to analyze the degree of inflammatory response and the degree of fibrosis, H&E staining and Masson's Trichrome staining were performed. In addition, the mouse survival rate was compared in FIG. 3.

[2] = system: radiation-induced pulmonary fibrosis; experiment: Inhibitory effect on radiation-induced pulmonary fibrosis in mice (Micro-CT, H&E and Masson's Trichrome staining); assay type: in vivo; settings: SBRT 90 Gy, 4 mm collimator, male C57BL/6 mice; each drug 60 mg/kg orally daily, starting one hour before irradiation; Micro-CT two weeks after radiation exposure; compared to untreated group
Source text: Seven-week-old male C57BL/6 mice were divided into groups treated with IM-1, nintedanib, and the combination of the two drugs (IM-1 + nintedanib). One hour before stereotactic body radiation therapy (SBRT; 90 Gy, 4 mm collimator), the drugs were orally administered to the mice. The degree of pulmonary fibrosis and the inhibitory effect on radiation-induced lung injury were observed two weeks after radiation exposure. The IM-1 and nintedanib groups were each administered the respective drug daily at a dose of 60 mg/kg, and the combination group was administered both drugs daily at 60 mg/kg each. Additionally, to analyze the degree of inflammatory response and the degree of fibrosis, H&E staining and Masson's Trichrome staining were performed.

With `COC(=O)c1ccc2c(c1)NC(=O)/C2=C(\Nc1ccc(N(C)C(=O)CN2CCN(C)CC2)cc1)c1ccccc1` [nintedanib, methyl (3Z)-3-{[(4-{methyl[(4-methylpiperazin-1-yl)acetyl]amino}phenyl)amino](phenyl)methylidene}-2-oxo-2,3-dihydro-1H-indole-6-carboxylate] the degree of fibrosis [1] was “a reduction in the degree of fibrosis” and the degree of fibrosis [2] was “a reduction in the degree of fibrosis”.
In the case of `FC(F)(F)c1ccc(CNc2ccc(Cc3c[nH]c4ncc(Cl)cc34)cn2)cn1` [IM-1, 5-((5-chloro-1H-pyrrolo[2,3-b]pyridin-3-yl)methyl)-N-((6-(trifluoromethyl)pyridin-3-yl)methyl)pyridin-2-amine], the degree of fibrosis [1] is reported as “a reduction in the degree of fibrosis” and the degree of fibrosis [2] is reported as “a reduction in the degree of fibrosis”.
